Results as given in patent US20050186617A1, “Gene screening method using nuclear receptor” (Chugai Seiyaku Kabushiki Kaisha, a Japanese corporation, priority 1997, published 2005).

Legend:
[1] = tested on: 1α (OH)-ase gene; test: Northern blot of CYP1AD (1α(OH)-ase) gene expression in mice given excess 1α,25(OH)2D3; assay type: in vivo; conditions: 50 ng/mouse
Source text: The tissue distribution of CYP1AD transcripts in 7-week-old normal and VDR−/− mice was examined. Poly(A)^+ RNA was extracted from brain, lung, heart, liver, spleen, kidney, small intestine, skeletal muscle, skin, and bone, and analyzed by northern blot technique using cDNA of CYP1AD and β-actin as probes (K. Takeyama et al., Biochem. Biophys. Res. Commun. 222, 395 (1996); H. Mano et al., J. Biol. Chem. 269, 1591 (1994)). As the result, the transcript of CYP1AD was detected as a single band in the kidney. The size of the transcript (2.4 kbp) is identical to that of cloned cDNA (FIG. 10). Except for kidney, in, 1α (OH)-ase activity has been reported in other tissues than kidney (A. W. Norman, J. Roth, L. Orchi, Endocr. Rev. 3, 331 (1982); H. F. DeLuca, Adv. Exp. Med. Biol. 196, 361 (1986); M. R. Walters, Endocr. Rev 13, 719 (1992); G. A. Howard, R. T. Turner, D. J. Sherrard, D. J. Baylink, J. Biol. Chem. 256, 7738 (1981); T. K. Gray, G. E. Lester, R. S. Lorenc, Science 204, 1311 (1979)). However, the transcript of 1α (OH)-ase was not detected in tissues other than kidney in this experiment.
The relative amount of the hydroxylase gene standardized with the β-actin gene transcripts was measured in at least 5 mice for each group (FIG. 12).

[2] = tested on: GAL4-VDR(DEF); test: CAT reporter assay in COS-1 cells co-transformed with GAL4-VDR(DEF) and 17M2-G-CAT; assay type: cell-based

| Structure (SMILES) | expression of the 1α (OH)-ase gene ([1]; 3- and 7-week-old VDR−/− mice) | expression of the 1α (OH)-ase gene ([1]; VDR+/+ and VDR+/− mice) | activation of the CAT reporter gene ([2]; CYP1AD expressed, with ADX and ADR expression vectors) | activation of the CAT reporter gene ([2]; in the absence of ADX or ADR) |
| --- | --- | --- | --- | --- |
| C=C1/C(=C\C=C2/CCC[C@]3(C)[C@@H]([C@H](C)CCCC(C)(C)O)CC[C@@H]23)C[C@@H](O)C[C@@H]1O [1α,25(OH)2D3, 1α,25-Dihydroxyvitamin D3] | the inhibition did not occurred | significantly inhibited | – | – |
| C=C1CC[C@H](O)C/C1=C/C=C1\CCC[C@]2(C)[C@@H]([C@H](C)CCCC(C)(C)O)CC[C@@H]12 [25(OH)D3, 25-hydroxyvitamin D3] | – | – | activated the CAT reporter gene | did not significantly activate the reporter gene |
